According to patent US9242970B2 (ACTELION PHARMACEUTICALS LTD., priority 2010, dated 2016):
Read-outs that look alike come from different tables or passages of the source.

Key:
human orexin-2 receptor = human orexin-2 receptor (Homo sapiens (Human), UniProt O43614); assay: In vitro assay: intracellular calcium measurements (FLIPR), antagonistic activity; format: cell-based; conditions: CHO cells, 3 nM orexin-A, marked values are geometric means of n = 2-6, read-out: IC50 OX2
human orexin-1 receptor = human orexin-1 receptor (Homo sapiens (Human), UniProt O43613); assay: as above; format: cell-based; conditions: CHO cells, 3 nM orexin-A, marked values are geometric means of n = 2-6, read-out: IC50 OX1
Sequence of human orexin-1 receptor (O43613 whole entry): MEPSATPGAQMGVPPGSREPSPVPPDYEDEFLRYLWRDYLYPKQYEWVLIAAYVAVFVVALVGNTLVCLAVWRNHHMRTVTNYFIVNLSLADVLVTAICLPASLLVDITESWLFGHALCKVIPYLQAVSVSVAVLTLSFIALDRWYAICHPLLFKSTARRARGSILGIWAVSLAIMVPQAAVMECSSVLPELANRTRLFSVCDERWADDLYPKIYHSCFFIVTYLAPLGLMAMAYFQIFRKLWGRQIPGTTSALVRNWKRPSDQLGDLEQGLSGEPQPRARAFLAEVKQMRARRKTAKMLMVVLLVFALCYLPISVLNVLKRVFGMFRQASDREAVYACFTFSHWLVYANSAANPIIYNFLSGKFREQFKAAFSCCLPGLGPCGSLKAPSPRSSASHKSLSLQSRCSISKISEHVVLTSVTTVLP

[1] = compound incubation time of 10 min

Sequence of human orexin-2 receptor (O43614 whole entry): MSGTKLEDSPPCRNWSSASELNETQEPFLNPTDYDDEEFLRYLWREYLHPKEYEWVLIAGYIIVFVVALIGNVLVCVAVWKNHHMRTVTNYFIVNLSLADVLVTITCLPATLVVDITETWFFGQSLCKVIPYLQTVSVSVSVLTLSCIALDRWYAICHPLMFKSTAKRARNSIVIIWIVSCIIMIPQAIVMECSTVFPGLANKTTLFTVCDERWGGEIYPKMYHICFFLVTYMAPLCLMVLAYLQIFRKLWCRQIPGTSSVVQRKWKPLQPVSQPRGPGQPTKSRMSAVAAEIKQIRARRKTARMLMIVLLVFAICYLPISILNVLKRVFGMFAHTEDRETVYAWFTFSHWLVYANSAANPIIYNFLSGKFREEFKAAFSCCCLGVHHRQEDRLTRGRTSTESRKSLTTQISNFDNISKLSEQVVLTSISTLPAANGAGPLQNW

| Structure (SMILES) | IC50 (human orexin-2 receptor; compound incubation 120 min) | IC50 (human orexin-1 receptor; compound incubation 120 min) | IC50 (human orexin-2 receptor; [1]) | IC50 (human orexin-1 receptor; [1]) |
| --- | --- | --- | --- | --- |
| COc1ccccc1[C@@H]1C[C@H](F)C(=O)N1Cc1ccc(OC(F)(F)F)cc1 (racemic) [Example 297, rac-(3S*,5S*)-3-fluoro-5-(2-methoxyphenyl)-1-(4-(trifluoromethoxy)benzyl)pyrrolidin-2-one] | 568 nM | 1050 nM | – | – |
| COc1cccc(Cl)c1C1CCCC(=O)N1Cc1ccc(OC(F)(F)F)cc1 (stereo not shown) [Example 221, 6-(2-chloro-6-methoxyphenyl)-1-(4-(trifluoromethoxy)benzyl)piperidin-2-one] | – | – | 154 nM | 4880 nM |
| COc1cccc(OC)c1C1CCCCC(=O)N1Cc1ccc2c(c1)c1ccccc1n2C (stereo not shown) [Example 86, 7-(2,6-dimethoxyphenyl)-1-((9-methyl-9H-carbazol-3-yl)methyl)azepan-2-one] | 71 nM | 45 nM | – | – |
| COc1cccc(OC)c1C1CCCC(=O)N1Cc1ccccc1-c1ccccc1 (stereo not shown) [Example 190, 1-([1,1′-biphenyl]-2-ylmethyl)-6-(2,6-dimethoxyphenyl)piperidin-2-one] | – | – | 507 nM | 1950 nM |
| COc1cncc(OC)c1C1CCCC(=O)N1Cc1cccc(-n2nccn2)c1 (stereo not shown) [Example 67, 1-(3-(2H-1,2,3-triazol-2-yl)benzyl)-6-(3,5-dimethoxypyridin-4-yl)piperidin-2-one] | 156 nM | 163 nM | – | – |
| COc1cccc(OC)c1C1CCCCC(=O)N1Cc1ccc(-c2ccccc2)cc1 (stereo not shown) [Example 77, 1-([1,1′-biphenyl]-4-ylmethyl)-7-(2,6-dimethoxyphenyl)azepan-2-one] | 188 nM | 305 nM | – | – |
| CCOc1cccc(F)c1C1CC(C)C(=O)N1Cc1cccc(-c2ncc(C)s2)c1 (stereo not shown) [Example 384, 5-(2-ethoxy-6-fluorophenyl)-3-methyl-1-(3-(5-methylthiazol-2-yl)benzyl)pyrrolidin-2-one] | 2 nM | 111 nM | – | – |
| COc1cccc(OC)c1C1CCCCC(=O)N1Cc1ccc(Oc2ccccc2)cc1 (stereo not shown) [Example 73, 7-(2,6-dimethoxyphenyl)-1-(4-phenoxybenzyl)azepan-2-one] | 187 nM | 186 nM | – | – |
| COc1cccc(OC)c1C1CCCC(=O)N1Cc1ccc(OC(F)(F)F)cc1 (stereo not shown) [Example 156, 6-(2,6-dimethoxyphenyl)-1-(4-(trifluoromethoxy)benzyl)piperidin-2-one] | – | – | 22 nM | 259 nM |
| COc1ccnc(OC)c1C1CC(C)C(=O)N1Cc1cccc(-c2ncc(C)s2)c1 (stereo not shown) [Example 349, 5-(2,4-dimethoxypyridin-3-yl)-3-methyl-1-(3-(5-methylthiazol-2-yl)benzyl)pyrrolidin-2-one] | 120 nM | 104 nM | – | – |
| O=C1CCCC(c2c(F)cccc2F)N1Cc1ccc(OC(F)(F)F)cc1 (stereo not shown) [Example 224, 6-(2,6-difluorophenyl)-1-(4-(trifluoromethoxy)benzyl)piperidin-2-one] | – | – | 2470 nM | 3190 nM |
| COc1cccc(OC)c1C1CCCC(=O)N1Cc1ccnc(-c2ccccc2)c1 (stereo not shown) [Example 12, 6-(2,6-dimethoxyphenyl)-1-((2-phenylpyridin-4-yl)methyl)piperidin-2-one] | 34 nM | 25 nM | – | – |
| COc1cccc(OC)c1C1CCCCC(=O)N1Cc1cccc(-c2ccccc2)n1 (stereo not shown) [Example 82, 7-(2,6-dimethoxyphenyl)-1-((6-phenylpyridin-2-yl)methyl)azepan-2-one] | 26 nM | 7 nM | – | – |
| COc1cccc(OC)c1C1CCCC(=O)N1Cc1ccc(-c2ccccc2)cc1 (stereo not shown) [Example 244, 1-([1,1′-biphenyl]-4-ylmethyl)-6-(2,6-dimethoxyphenyl)piperidin-2-one] | – | – | 72 nM | 1090 nM |
| COc1cccc(OC)c1C1CCCC(=O)N1Cc1cccc(N2CCOCC2)c1 (stereo not shown) [Example 17, 6-(2,6-dimethoxyphenyl)-1-(3-morpholinobenzyl)piperidin-2-one] | 661 nM | 210 nM | – | – |
| COc1cccc(OC)c1C1CCCCC(=O)N1Cc1cccc(-c2ncccn2)c1 (stereo not shown) [Example 83, 7-(2,6-dimethoxyphenyl)-1-(3-(pyrimidin-2-yl)benzyl)azepan-2-one] | 19 nM | 3 nM | – | – |
| COc1ccnc(OC)c1C1CC(C)C(=O)N1Cc1ccc2oc3ccccc3c2c1 (stereo not shown) [Example 352, 1-(dibenzo[b,d]furan-2-ylmethyl)-5-(2,4-dimethoxypyridin-3-yl)-3-methylpyrrolidin-2-one] | 13 nM | 7 nM | – | – |
| CCOc1ccc(CN2C(=O)CCCC2c2c(OC)cccc2OC)cc1 (stereo not shown) [Example 205, 6-(2,6-dimethoxyphenyl)-1-(4-ethoxybenzyl)piperidin-2-one] | – | – | 65 nM | 202 nM |
| COc1cccc(F)c1C1CC(C)C(=O)N1Cc1cnc2ccccc2c1 (stereo not shown) [Example 358, 5-(2-fluoro-6-methoxyphenyl)-3-methyl-1-(quinolin-3-ylmethyl)pyrrolidin-2-one] | 1260 nM | 959 nM | – | – |

| Structure (SMILES) | IC50 (human orexin-2 receptor; compound incubation 120 min) | IC50 (human orexin-1 receptor; compound incubation 120 min) | IC50 (human orexin-2 receptor; [1]) | IC50 (human orexin-1 receptor; [1]) |
| --- | --- | --- | --- | --- |
| O=C1CCCCC(c2ccccc2-c2cccnc2)N1Cc1cccc(-c2nccs2)c1 (stereo not shown) [Example 453, 7-(2-(pyridin-3-yl)phenyl)-1-(3-(thiazol-2-yl)benzyl)azepan-2-one] | 93 nM | 381 nM | – | – |
| COc1cccc(OC)c1C1CC(C)C(=O)N1Cc1ccc2nc(C)sc2c1 (stereo not shown) [Example 151, 5-(2,6-dimethoxyphenyl)-3-methyl-1-((2-methylbenzo[d]thiazol-6-yl)methyl)pyrrolidin-2-one] | 703 nM | 125 nM | – | – |
| COc1cccc(OC)c1C1CC(C)C(=O)N1Cc1ccc(OC(C)C)cc1 (stereo not shown) [Example 397, 5-(2,6-dimethoxyphenyl)-1-(4-isopropoxybenzyl)-3-methylpyrrolidin-2-one] | 370 nM | 265 nM | – | – |
| COc1cccc(OC)c1C1CCCC(=O)N1Cc1ccc2nonc2c1 (stereo not shown) [Example 170, 1-(benzo[c][1,2,5]oxadiazol-5-ylmethyl)-6-(2,6-dimethoxyphenyl)piperidin-2-one] | – | – | 766 nM | 2390 nM |
| COc1cccc(OC)c1C1CCC(=O)N1Cc1ccc(Oc2nc(C)cs2)cc1 (stereo not shown) [Example 292, 5-(2,6-dimethoxyphenyl)-1-(4-((4-methylthiazol-2-yl)oxy)benzyl)pyrrolidin-2-one] | 125 nM | 214 nM | – | – |
| COc1cccc(OC)c1C1CC(C)C(=O)N1Cc1ccnc(-c2ncc(C)s2)c1 (stereo not shown) [Example 351, 5-(2,6-dimethoxyphenyl)-3-methyl-1-((2-(5-methylthiazol-2-yl)pyridin-4-yl)methyl)pyrrolidin-2-one] | 51 nM | 16 nM | – | – |
| COc1cccc(OC)c1C1CC(C)C(=O)N1Cc1ccc2oc3ccccc3c2c1 (stereo not shown) [Example 137, 1-(dibenzo[b,d]furan-2-ylmethyl)-5-(2,6-dimethoxyphenyl)-3-methylpyrrolidin-2-one] | 5 nM | 2 nM | – | – |
| CC1CC(c2c(F)cccc2OCCF)N(Cc2ccc(OC(F)(F)F)cc2)C1=O (stereo not shown) [Example 414, 5-(2-fluoro-6-(2-fluoroethoxy)phenyl)-3-methyl-1-(4-(trifluoromethoxy)benzyl)pyrrolidin-2-one] | 44 nM | 1500 nM | – | – |
| COc1cccc(OC)c1C1CC(C)C(=O)N1Cc1ccnc(-n2cccn2)c1 (stereo not shown) [Example 154, 1-((2-(1H-pyrazol-1-yl)pyridin-4-yl)methyl)-5-(2,6-dimethoxyphenyl)-3-methylpyrrolidin-2-one] | 204 nM | 10 nM | – | – |
| COc1cccc(OC)c1C1CCCC(=O)N1Cc1ccc(OCC(F)(F)F)cc1 (stereo not shown) [Example 246, 6-(2,6-dimethoxyphenyl)-1-(4-(2,2,2-trifluoroethoxy)benzyl)piperidin-2-one] | – | – | 11 nM | 665 nM |
| COc1cccc(OC)c1C1CCCCC(=O)N1Cc1cnc2ccccc2c1 (stereo not shown) [Example 80, 7-(2,6-dimethoxyphenyl)-1-(quinolin-3-ylmethyl)azepan-2-one] | 1040 nM | 715 nM | – | – |
| Cc1nc(-c2cccc(CN3C(=O)CCC3c3ccccc3-c3ccccc3)c2)cs1 (stereo not shown) [Example 286, 5-([1,1′-biphenyl]-2-yl)-1-(3-(2-methylthiazol-4-yl)benzyl)pyrrolidin-2-one] | 462 nM | 104 nM | – | – |
| COc1cccc(OC)c1C1CCCC(=O)N1Cc1cccc(-c2cscn2)c1 (stereo not shown) [Example 45, 6-(2,6-dimethoxyphenyl)-1-(3-(thiazol-4-yl)benzyl)piperidin-2-one] | 17 nM | 12 nM | – | – |
| CCOc1cccc(F)c1[C@@H]1C[C@H](Cl)C(=O)N1Cc1ccc(OC(F)(F)F)c(F)c1 (racemic) [Example 435, rac-(3S*,5S*)-3-chloro-5-(2-ethoxy-6-fluorophenyl)-1-(3-fluoro-4-(trifluoromethoxy)benzyl)pyrrolidin-2-one] | 30 nM | 660 nM | – | – |
| COc1cccc(OC)c1C1CCCCC(=O)N1Cc1cccc(-n2cccn2)c1 (stereo not shown) [Example 97, 1-(3-(1H-pyrazol-1-yl)benzyl)-7-(2,6-dimethoxyphenyl)azepan-2-one] | 20 nM | 5 nM | – | – |
| COc1ccnc(OC)c1C1CCCC(=O)N1Cc1ccc(F)c(-c2ccccn2)c1 (stereo not shown) [Example 59, 6-(2,4-dimethoxypyridin-3-yl)-1-(4-fluoro-3-(pyridin-2-yl)benzyl)piperidin-2-one] | 135 nM | 207 nM | – | – |
| COc1cccc(OC)c1C1CCCC(=O)N1Cc1ccc(SC(F)(F)F)cc1 (stereo not shown) [Example 162, 6-(2,6-dimethoxyphenyl)-1-(4-((trifluoromethyl)thio)benzyl)piperidin-2-one] | – | – | 62 nM | 1310 nM |
| COc1cccc(OC)c1C1CCCC(=O)N1Cc1ccc(-c2ccccc2)s1 (stereo not shown) [Example 18, 6-(2,6-dimethoxyphenyl)-1-((5-phenylthiophen-2-yl)methyl)piperidin-2-one] | 38 nM | 117 nM | – | – |
| COc1cncc(OC)c1C1CCCC(=O)N1Cc1cccc(-c2nccs2)c1 (stereo not shown) [Example 61, 6-(3,5-dimethoxypyridin-4-yl)-1-(3-(thiazol-2-yl)benzyl)piperidin-2-one] | 26 nM | 40 nM | – | – |
